# In patent publication US9616037B2, “Aryl-phenyl-sulfonamido-cycloalkyl compounds and their use” (PIMCO 2664 Limited, priority 2008, dated 2017):
# System: not listed separately
# Experiment: Thermodynamic aqueous solubility in fasted state simulated intestinal fluid (FaSSIF)
# Type: physicochemical
# Conditions: equilibrated at 25° C. for 24 hours, HPLC
# Procedure: Initial screening of candidate compounds was performed using in vitro assays to determine potency, metabolic stability and solubility in biologically relevant fluids. Potency was assessed using a viability assay based on the survival of the J774 macrophage cell line. […] Like osteoclasts, J774 macrophages are dependent on continued NFκB activation for survival, thereby providing a valuable screen for compounds with anti-inflammatory activity. Metabolic stability was measured by determining the rate of disappearance of compound in the presence of human liver microsomal preparations, as quantified by LC-MS/MS. Solubility was measured by equilibration of the compound in fasted state simulated intestinal fluid (FaSSIF) and quantified by HPLC.
# Thermodynamic aqueous solubility was measured by equilibration of a number of APSAC compounds, in the solid state, with fasted state simulated intestinal fluid (FaSSIF) and quantified by HPLC. Measurement of solubility in FaSSIF provides a valuable model for the prediction of drug dissolution following oral administration.
# The pH was adjusted to 6.5 using 1 M NaOH solution.
# 0.6 mL of a solution containing 100 mg/mL lecithin in methylene chloride was added. The methylene chloride was eliminated under vacuum at about 40° C. The vacuum was drawn for 15 minutes at 250 mbar, followed by 15 minutes at 100 mbar. […] After cooling to room temperature, the solution was then adjusted to 100 mL with blank FaSSIF.
# The suspension was equilibrated at 25° C. for 24 hours, and then the pH was measured. The suspension was then filtered through a glass fibre C filter into a 96-well plate. The filtrate was then diluted by a factor of 100. Quantification was made by HPLC with reference to a standard solution of compound at approximately 0.1 mg/mL in DMSO. Different volumes of the standard, diluted and undiluted sample solutions were injected. […] Analysis was performed on an Agilent HP1100 series system equipped with a diode array detector and using ChemStation software vB.02.01-SR1.
row,SMILES,Solubility
1,"O=S(=O)(Nc1cccc(CO)c1)c1ccc(-c2ccc(F)cc2F)cc1 [ABD456, 2′,4′-difluoro-biphenyl-4-sulfonic acid (3-hydroxymethyl-phenyl)-amide, reference compound]",40 µg/mL
2,"O=S(=O)(Nc1cccc(CO)c1)c1ccc(-c2ccc(Cl)cc2F)cc1 [ABD575, reference compound]",70 µg/mL

# System: J774 macrophages
# Experiment: Alamar Blue macrophage J774 viability assay
# Type: cell-based
# Conditions: J774 cells, 72 hours with compound, Alamar Blue readout
# Procedure: Initial screening of candidate compounds was performed using in vitro assays to determine potency, metabolic stability and solubility in biologically relevant fluids. Potency was assessed using a viability assay based on the survival of the J774 macrophage cell line. Macrophages are closely related to osteoclasts and have been used previously as a model system for osteoclast survival (see, e.g., Luckman et al., 1998). Like osteoclasts, J774 macrophages are dependent on continued NFκB activation for survival, thereby providing a valuable screen for compounds with anti-inflammatory activity. Metabolic stability was measured by determining the rate of disappearance of compound in the presence of human liver microsomal preparations, as quantified by LC-MS/MS. Solubility was measured by equilibration of the compound in fasted state simulated intestinal fluid (FaSSIF) and quantified by HPLC.
# In vitro potency as anti-inflammatory agents was determined for a number of APSAC compounds by incubation with J774 macrophages and subsequent determination of cell viability.
# J774 cells were plated at 10^4 cells per well in 100 μL αMEM (α Modified Eagle Medium) in 96-well plates and grown overnight. The next day, test compounds were added to the cultures, and cultures were continued for another 72 hours. At the end of the culture period, cell survival was determined using an Alamar Blue assay as previously described (see, e.g., Nociari et al., 1998).
# Alamar Blue is an oxidation-reduction sensitive indicator. The dye itself is in the oxidised state, which is blue and non-fluorescent. The dye can accept electrons from reducing species, such as NADPH and FADH, to form a reduced dye species, which is red and fluorescent. Thus the transformation from oxidised form to reduced form can be measured by fluorimetric or colourimetric means. For fluorescence measurements, 530-560 nm excitation and 590 nm emission wavelengths are typically used. For colourimetric measurements, absorbance at 570 nm (reduced form) and 600 nm (oxidised form) is typically measured. A simple calculation is performed to determine the relative quantities of the two species.
# A high ratio of the reducing species, NADPH and FADH, to the corresponding oxidised species, NADP and FAD, is an indicator that cells are proliferating and viable. A low ratio indicates cells that are quiescent or non-viable.
# Briefly, Alamar Blue (Biosource International) was added undiluted to the each well (1:10 v/v, 10 μL). The plate was incubated at 37° C. for 3-4 hours and the fluorescence was measured at 590 nm, with a 25 nm bandwidth. A high reading indicated cells with normal viability, and a low reading indicated cells that have been damaged and are no longer proliferating normally. The controls gave a high fluorescence reading, indicating a high number of live, healthy cells. A potent test compound gave a low fluorescence reading. The average results for each test compound (n=5) were expressed as a percent (%) of the average control value.
# Addition of Compounds. All of the compounds studied were made up as 100 mM solutions in DMSO. These stock solutions were then diluted 1000-10000× in culture medium (αMEM). From these 100 μM or 10 μM solutions, convenient quantities (3-33 μL) were added directly to the wells so as to give the desired final compound concentration.
row,SMILES,IC50
1,"O=S(=O)(N[C@H]1CC[C@H](O)CC1)c1ccc(-c2cncnc2)cc1 [ABD861, N-(trans-4-Hydroxycyclohexyl)-4-(pyrimidin-5-yl)benzenesulfonamide]",Inactive

# Same assay, conditions: J774 cells, 72 hours with compound, Alamar Blue readout; read-out: IC50
row,SMILES,IC50
1,"O=S(=O)(Nc1cccc(CO)c1)c1ccc(-c2ccc(Cl)cc2F)cc1 [ABD575, reference compound]",0.4 µM

# Same assay, conditions: Mus musculus; J774 cells, 72 hours with compound, Alamar Blue readout; read-out: IC50
row,SMILES,IC50
1,"O=S(=O)(Nc1cccc(CO)c1)c1ccc(-c2ccc(F)cc2F)cc1 [ABD456, 2′,4′-difluoro-biphenyl-4-sulfonic acid (3-hydroxymethyl-phenyl)-amide, reference compound]",0.25 µM
2,"O=S(=O)(Nc1ccc(CO)cc1)c1ccc(-c2ccc(F)cc2F)cc1 [ABD466, 2′,4′-difluoro-biphenyl-4-sulfonic acid (4-hydroxymethyl-phenyl)-amide, reference compound]",3 µM
3,"O=S(=O)(N[C@H]1CC[C@H](O)CC1)c1ccc(-c2ccc(OC(F)(F)F)cc2)c(F)c1 [ABD665, 2-Fluoro-N-(trans-4-hydroxycyclohexyl)-4′-(trifluoromethoxy)biphenyl-4-sulfonamide]",4.9 µM
4,"O=S(=O)(N[C@H]1CC[C@H](O)CC1)c1ccc(-c2ccc(F)cc2F)cc1Cl [ABD705, 3-Chloro-2′,4′-difluoro-N-(trans-4-hydroxycyclohexyl)biphenyl-4-sulfonamide]",0.83 µM
5,"COc1ccc(-c2ccc(S(=O)(=O)N[C@H]3CC[C@H](O)CC3)cc2F)cc1 [ABD710, 2-Fluoro-N-(trans-4-hydroxycyclohexyl)-4′-methoxybiphenyl-4-sulfonamide]",1.98 µM
6,"O=S(=O)(N[C@H]1CC[C@H](O)CC1)c1ccc(-c2ccc(Cl)c(C(F)(F)F)c2)cc1 [ABD712, 4′-Chloro-N-(trans-4-hydroxycyclohexyl)-3′-(trifluoromethyl)biphenyl-4-sulfonamide]",5.46 µM
7,"N#Cc1ccc(-c2ccc(S(=O)(=O)N[C@H]3CC[C@H](O)CC3)c(Cl)c2)cc1 [ABD732, 3-Chloro-4′-cyano-N-(trans-4-hydroxycyclohexyl)biphenyl-4-sulfonamide]",4.32 µM
8,"Cc1cc(S(=O)(=O)N[C@H]2CC[C@H](O)CC2)ccc1-c1ccc(F)cc1F [ABD735, 2′,4′-Difluoro-N-(trans-4-hydroxycyclohexyl)-2-methylbiphenyl-4-sulfonamide]",0.09 µM
9,"Cc1cc(S(=O)(=O)N[C@H]2CC[C@H](O)CC2)ccc1-c1ccc(OC(F)(F)F)cc1 [ABD742, N-(trans-4-Hydroxycyclohexyl)-2-methyl-4′-(trifluoromethoxy)biphenyl-4-sulfonamide]",0.77 µM
10,"O=S(=O)(N[C@H]1CC[C@H](O)CC1)c1ccc(-c2ccc(Cl)cc2Cl)cc1OC(F)(F)F [ABD756, 2′,4′-Dichloro-N-(trans-4-hydroxycyclohexyl)-3-(trifluoromethoxy)biphenyl-4-sulfonamide]",2.18 µM
11,"CNC1CCC(NS(=O)(=O)c2ccc(-c3ccc(F)cc3F)cc2)CC1 (centres unmarked) [ABD816, 2′,4′-Difluoro-N-(4-(methylamino)cyclohexyl)biphenyl-4-sulfonamide]",0.8 µM
12,"CCNC1CCC(NS(=O)(=O)c2ccc(-c3ccc(F)cc3F)cc2)CC1 (centres unmarked) [ABD817, N-(4-(Ethylamino)cyclohexyl)-2′,4′-difluorobiphenyl-4-sulfonamide]",< 1 µM
13,"CCN(CC)C1CCC(NS(=O)(=O)c2ccc(-c3ccc(F)cc3F)cc2)CC1 (centres unmarked) [ABD819, N-(4-(Diethylamino)cyclohexyl)-2′,4′-difluorobiphenyl-4-sulfonamide]",2.4 µM
14,"O=S(=O)(NC1CCC(N2CCCC2)CC1)c1ccc(-c2ccc(F)cc2F)cc1 (centres unmarked) [ABD820, 2′,4′-Difluoro-N-(4-(pyrrolidin-1-yl)cyclohexyl)biphenyl-4-sulfonamide]",2.5 µM
15,"O=S(=O)(NC1CCC(N2CCOCC2)CC1)c1ccc(-c2ccc(F)cc2F)cc1 (centres unmarked) [ABD821, 2′,4′-Difluoro-N-(4-morpholinocyclohexyl)biphenyl-4-sulfonamide]",> 10 µM
16,"CCN(C)C1CCC(NS(=O)(=O)c2ccc(-c3ccc(F)cc3F)cc2)CC1 (centres unmarked) [ABD822, N-(4-(Ethyl(methyl)amino)cyclohexyl)-2′,4′-difluorobiphenyl-4-sulfonamide]",6.98 µM
17,"CNC[C@H]1CC[C@@H](NS(=O)(=O)c2ccc(-c3ccc(F)cc3F)cc2)CC1 [ABD824, 2′,4′-Difluoro-N-(cis-4-((methylamino)methyl)cyclohexyl)biphenyl-4-sulfonamide]",7.2 µM
18,"CN(C)C[C@H]1CC[C@@H](NS(=O)(=O)c2ccc(-c3ccc(F)cc3F)cc2)CC1 [ABD826, N-(cis-4-((Dimethylamino)methyl)cyclohexyl)-2′,4′-difluorobiphenyl-4-sulfonamide]",1 µM
19,"O=S(=O)(N[C@H]1CC[C@H](O)CC1)c1ccc(-c2ncc(Cl)cc2Cl)cc1 [ABD836, 4-(3,5-Dichloropyridin-2-yl)-N-(trans-4-hydroxycyclohexyl) benzene sulfonamide]",0.28 µM
20,"O=S(=O)(N[C@H]1CC[C@H](O)CC1)c1ccc(-c2ncc(Cl)cn2)cc1 [ABD837, 4-(5-Chloropyrimidin-2-yl)-N-(trans-4-hydroxycyclohexyl)benzenesulfonamide]",8.88 µM
21,"O=S(=O)(N[C@H]1CC[C@@H](NCC(F)(F)F)CC1)c1ccc(-c2ccc(F)cc2F)cc1 [ABD864, 2′,4′-Difluoro-N-(cis-4-(2,2,2-trifluoroethylamino)cyclohexyl)biphenyl-4-sulfonamide]",> 10 µM
22,"O=S(=O)(N[C@H]1CC[C@H](NCC(F)(F)F)CC1)c1ccc(-c2ccc(F)cc2F)cc1 [ABD865, 2′,4′-Difluoro-N-(trans-4-(2,2,2-trifluoroethylamino)cyclohexyl)biphenyl-4-sulfonamide]",5.9 µM
